# Experimental data from US8664220B2, “Polycyclic compounds as lysophosphatidic acid receptor antagonists” (Amira Pharmaceuticals, Inc., priority 2009, dated 2014).
# Target: T1, human LPA1 (Homo sapiens, UniProt Q92633)
# T1 construct: the full-length cDNA for human LPA1 was obtained by PCR of the reverse transcription reaction; expressed in transfected cells
# Assay: LPA1 calcium flux assay
# Type: cell-based
# Conditions: human LPA1 expressing CHO cells, stimulated with 10 nM LPA; read-out: HLPA1 Ca Flux IC50
# How it was run: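 CHO cells stably expressing human LPA1, serum-starved overnight and loaded with Calcium 4 dye in HBSS/20 mM Hepes/0.3% fatty-acid-free HSA, 1 h at 37 °C. Compounds pre-incubated 30 min at room temperature, then 10 nM LPA added; intracellular Ca2+ flux measured and IC50 from titration curves.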
# T1 sequence (Q92633 whole entry): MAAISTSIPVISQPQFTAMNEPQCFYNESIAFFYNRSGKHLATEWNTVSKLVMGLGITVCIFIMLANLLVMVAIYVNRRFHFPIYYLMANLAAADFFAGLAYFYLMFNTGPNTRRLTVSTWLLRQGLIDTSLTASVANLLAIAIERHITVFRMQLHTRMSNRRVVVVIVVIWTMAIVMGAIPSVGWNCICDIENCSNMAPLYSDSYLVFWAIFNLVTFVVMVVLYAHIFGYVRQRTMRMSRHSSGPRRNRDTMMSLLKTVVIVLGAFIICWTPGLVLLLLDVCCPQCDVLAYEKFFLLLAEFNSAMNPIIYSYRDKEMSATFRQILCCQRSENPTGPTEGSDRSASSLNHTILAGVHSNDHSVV
row,SMILES,IC50 [nM]
1,"Cc1noc(-c2ccc(-c3ccc(C4(C(=O)NS(C)(=O)=O)CC4)cc3)cc2)c1C(O)c1nnc(Cc2ccccc2)o1 (single isomer, unassigned) [Compound 3-2, N-[1-(4′-{4-[(5-Benzyl-[1,3,4]oxadiazol-2-yl)-hydroxy-methyl]-3-methyl-isoxazol-5-yl}-biphenyl-4-yl)-cyclopropanecarbonyl]-methanesulfonamide]",< 300
2,"Cc1noc(-c2ccc(-c3ccc(C4(C(=O)O)CC4)cc3)cc2)c1CNc1nnc(-c2ccccc2)o1 [Compound 1-19, 1-(4′-{3-Methyl-4-[(5-phenyl-[1,3,4]oxadiazol-2-ylamino)-methyl]-isoxazol-5-yl}-biphenyl-4-yl)-cyclopropanecarboxylic acid]",< 300
3,"Cc1noc(-c2ccc(-c3ccc(C4(C(=O)O)CC4)cc3)cc2)c1C(O)c1cncc(-c2cccc(C(F)(F)F)c2)c1 (stereo not shown) [Compound 1-130, 1-[4′-(4-{Hydroxy-[5-(3-trifluoromethyl-phenyl)-pyridin-3-yl]-methyl}-3-methyl-isoxazol-5-yl)-biphenyl-4-yl]-cyclopropanecarboxylic acid]",< 300
4,"Cc1noc(-c2ccc(-c3ccc(C4(C(=O)O)CC4)cc3)cc2)c1Nc1cccc(-c2cccc(F)c2)n1 [Compound 1-93, 1-(4′-{4-[6-(3-Fluoro-phenyl)-pyridin-2-ylamino]-3-methyl-isoxazol-5-yl}-biphenyl-4-yl)-cyclopropanecarboxylic acid]",< 300
5,"Cc1noc(-c2ccc(-c3ccc(C4(C(=O)O)CC4)cc3)cc2)c1Nc1cccc(-c2ccccc2F)n1 [Compound 1-95, 1-(4′-{4-[6-(2-Fluoro-phenyl)-pyridin-2-ylamino]-3-methyl-isoxazol-5-yl}-biphenyl-4-yl)-cyclopropanecarboxylic acid]",< 300
6,"Cc1noc(-c2ccc(-c3ccc(C4(C(=O)O)CC4)cc3)cc2)c1C(O)c1cn(Cc2c(F)cccc2Cl)nn1 (stereo not shown) [Compound 1-71, 1-[4′-(4-{[1-(2-Chloro-6-fluoro-benzyl)-1H-[1,2,3]triazol-4-yl]-hydroxy-methyl}-3-methyl-isoxazol-5-yl)-biphenyl-4-yl]-cyclopropanecarboxylic acid]",< 300
7,"Cc1noc(-c2ccc(-c3ccc(C4(C(=O)O)CC4)cc3)cc2)c1Nc1cccc(-c2cc(F)cc(Cl)c2)n1 [Compound 1-147, 1-(4′-{4-[6-(3-Chloro-5-fluoro-phenyl)-pyridin-2-ylamino]-3-methyl-isoxazol-5-yl}-biphenyl-4-yl)-cyclopropanecarboxylic acid]",< 300
8,"Cc1noc(-c2ccc(-c3ccc(C4(C(=O)O)CC4)cc3)cc2)c1C1CC1C(=O)N(C)[C@H](C)c1ccccc1 (single isomer, unassigned) [Compound 1-26]",300 to 1000
9,"Cc1noc(-c2ccc(-c3ccc(C4(C(=O)O)CC4)cc3)cc2)c1Nc1cccc(-c2cccc(F)c2Cl)n1 [Compound 1-153, 1-(4′-{4-[6-(2-Chloro-3-fluoro-phenyl)-pyridin-2-ylamino]-3-methyl-isoxazol-5-yl}-biphenyl-4-yl)-cyclopropanecarboxylic acid]",< 300
10,"Cc1noc(-c2ccc(-c3ccc(C4(C(=O)O)CC4)cc3)cc2)c1Nc1cccc(Sc2ccccc2)n1 [Compound 1-126, 1-{4′-[3-Methyl-4-(6-phenylsulfanyl-pyridin-2-ylamino)-isoxazol-5-yl]-biphenyl-4-yl}-cyclopropanecarboxylic acid]",< 300
11,"Cc1noc(-c2ccc(-c3ccc(C4(C(=O)O)CC4)cc3)cc2)c1Nc1cccc(-c2ccccc2C(F)(F)F)n1 [Compound 1-96, 1-(4′-{3-methyl-4-[6-(2-trifluoromethyl-phenyl)-pyridin-2-ylamino]-isoxazol-5-yl}-biphenyl-4-yl)-cyclopropanecarboxylic acid]",< 300
12,"Cc1noc(-c2ccc(-c3ccc(C4(C(=O)O)CC4)cc3)cc2)c1Nc1cccc(S(=O)(=O)c2ccccc2)n1 [Compound 1-128, 1-{4′-[4-(6-Benzenesulfonyl-pyridin-2-ylamino)-3-methyl-isoxazol-5-yl]-biphenyl-4-yl}-cyclopropanecarboxylic acid]",< 300
13,"Cc1noc(-c2ccc(-c3ccc(C4(C(=O)O)CC4)cc3)cc2)c1Nc1cccc(N2CCOC2=O)n1 [Compound 1-143, 1-(4′-{3-Methyl-4-[6-(2-oxo-oxazolidin-3-yl)-pyridin-2-ylamino]-isoxazol-5-yl}-biphenyl-4-yl)-cyclopropanecarboxylic acid]",< 300
14,"Cc1noc(-c2ccc(-c3ccc(CC(=O)O)cc3)cc2)c1C(O)c1cn(Cc2ccc(Cl)c(Cl)c2)nn1 (stereo not shown) [Compound 1-65, [4′-(4-{[1-(3,4-Dichloro-benzyl)-1H-[1,2,3]triazol-4-yl]-hydroxy-methyl}-3-methyl-isoxazol-5-yl)-biphenyl-4-yl]-acetic acid]",1000 to 50000

# Now from value to compound:
row,IC50 [nM],SMILES
1,< 300,"COc1cncc(-c2cccc(Nc3c(C)noc3-c3ccc(-c4ccc(C5(C(=O)O)CC5)cc4)cc3)c2)c1 [Compound 1-104, 1-(4′-{4-[3-(5-Methoxy-pyridin-3-yl)-phenylamino]-3-methyl-isoxazol-5-yl}-biphenyl-4-yl)-cyclopropanecarboxylic acid]"
2,< 300,"Cc1noc(-c2ccc(-c3ccc(C4(C(=O)O)CC4)cc3)cc2)c1Nc1nnc(-c2ccccc2)o1 [Compound 1-80, 1-{4′-[3-Methyl-4-(5-phenyl-[1,3,4]oxadiazol-2-ylamino)-isoxazol-5-yl]-biphenyl-4-yl}-cyclopropanecarboxylic acid]"
3,< 300,"Cc1noc(-c2ccc(-c3ccc(C4(C(=O)O)CC4)cc3)cc2)c1C(O)c1nnc(Cc2ccccc2)o1 (single isomer, unassigned) [Compound 1-34, 1-(4′-{4-[(5-Benzyl-[1,3,4]oxadiazol-2-yl)-hydroxy-methyl]-3-methyl-isoxazol-5-yl}-biphenyl-4-yl)-cyclopropanecarboxylic acid]"
4,1000 to 50000,"Cc1noc(-c2ccc(-c3ccc(C4(CC(=O)O)CC4)cc3)cc2)c1C(O)CCCc1ccc(Oc2ccccc2)cc1 (stereo not shown) [Compound 1-33, [1-(4′-{-4-[1-Hydroxy-4-(4-phenoxy-phenyl)-butyl]-3-methyl-isoxazol-5-yl}-biphenyl-4-yl)-cyclopropyl]-acetic acid]"
5,< 300,"Cc1noc(-c2ccc(-c3ccc(C4(C(=O)O)CC4)cc3)cc2)c1Nc1cccc(Oc2ccccc2)c1 [Compound 1-82, 1-{4′-[3-Methyl-4-(3-phenoxy-phenylamino)-isoxazol-5-yl]-biphenyl-4-yl}-cyclopropanecarboxylic acid]"
6,< 300,"Cc1noc(-c2ccc(-c3ccc(C4(C(=O)O)CC4)cc3)cc2)c1C(O)c1cn(Cc2ccccc2Cl)nn1 (stereo not shown) [Compound 1-61, 1-[4′-(4-{[1-(2-Chloro-benzyl)-1H-[1,2,3]triazol-4-yl]-hydroxy-methyl}-3-methyl-isoxazol-5-yl)-biphenyl-4-yl]-cyclopropanecarboxylic acid]"
7,< 300,"Cc1noc(-c2ccc(-c3ccc(CC(=O)O)cc3)cc2)c1Nc1cccc(-c2ccccc2)n1 [Compound 1-76, {4′-[3-Methyl-4-(6-phenyl-pyridin-2-ylamino)-isoxazol-5-yl]-biphenyl-4-yl}-acetic acid]"
8,< 300,"Cc1noc(-c2ccc(-c3ccc(C4(CC(=O)O)CC4)cc3)cc2)c1C(O)c1nnc(Cc2ccccc2)o1 (stereo not shown) [Compound 1-60, [1-(4′-{4-[(5-Benzyl-[1,3,4]oxadiazol-2-yl)-hydroxy-methyl]-3-methyl-isoxazol-5-yl}-biphenyl-4-yl)-cyclopropyl]-acetic acid]"
